Experiments:
[1] = biological target: Acetylcholinesterase (Electrophorus electricus, UniProt O42275); test: Inhibition of electric eel AChE using acetylthiocholine iodide as substrate preincubated for 20 mins followed by substrate addition measured after 5 mins by Ellman's method
[2] = biological target: T1, Amine oxidase [flavin-containing] A (Homo sapiens, UniProt P21397); test: Inhibition of human recombinant MAO-A using tyramine as substrate preincubated for 30 mins followed by substrate addition measured for 1 hr by fluorometric assay
T1 sequence (P21397 whole entry): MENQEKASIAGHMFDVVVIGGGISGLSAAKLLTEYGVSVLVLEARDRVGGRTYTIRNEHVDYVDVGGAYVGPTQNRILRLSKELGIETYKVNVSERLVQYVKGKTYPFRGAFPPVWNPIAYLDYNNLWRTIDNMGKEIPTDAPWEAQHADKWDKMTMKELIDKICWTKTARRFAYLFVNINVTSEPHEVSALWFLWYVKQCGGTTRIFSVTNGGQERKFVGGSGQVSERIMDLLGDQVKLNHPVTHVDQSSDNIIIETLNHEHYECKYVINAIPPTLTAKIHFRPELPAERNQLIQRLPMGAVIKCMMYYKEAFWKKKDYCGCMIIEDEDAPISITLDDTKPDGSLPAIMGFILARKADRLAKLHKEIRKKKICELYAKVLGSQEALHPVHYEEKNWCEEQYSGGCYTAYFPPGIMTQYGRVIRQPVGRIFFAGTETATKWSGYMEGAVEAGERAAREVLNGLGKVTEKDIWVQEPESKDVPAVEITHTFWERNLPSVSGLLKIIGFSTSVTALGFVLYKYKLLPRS

[3] = biological target: Cholinesterase (Equus caballus, UniProt P81908); test: Inhibition of equine serum BuChE using butyrylthiocholine iodide as substrate preincubated for 20 mins followed by substrate addition measured after 25 mins by Ellman's method
[4] = biological target: T2, Amine oxidase [flavin-containing] B (Homo sapiens, UniProt P27338); test: Inhibition of human recombinant MAO-B using tyramine as substrate preincubated for 30 mins followed by substrate addition measured for 1 hr by fluorometric assay
T2 sequence (P27338 whole entry): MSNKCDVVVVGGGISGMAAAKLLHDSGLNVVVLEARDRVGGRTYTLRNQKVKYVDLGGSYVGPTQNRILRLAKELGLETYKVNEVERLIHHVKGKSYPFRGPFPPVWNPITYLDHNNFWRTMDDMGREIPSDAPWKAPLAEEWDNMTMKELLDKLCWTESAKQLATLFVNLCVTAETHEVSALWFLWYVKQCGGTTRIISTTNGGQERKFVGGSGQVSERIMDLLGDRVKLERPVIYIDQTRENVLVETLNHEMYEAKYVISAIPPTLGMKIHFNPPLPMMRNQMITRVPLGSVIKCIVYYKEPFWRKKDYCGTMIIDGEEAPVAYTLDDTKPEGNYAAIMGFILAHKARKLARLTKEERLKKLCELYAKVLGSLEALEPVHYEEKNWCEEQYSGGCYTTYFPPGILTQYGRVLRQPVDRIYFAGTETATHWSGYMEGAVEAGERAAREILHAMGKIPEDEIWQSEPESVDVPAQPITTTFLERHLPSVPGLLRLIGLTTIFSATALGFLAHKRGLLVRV

[5] = species: Homo sapiens; test: Selectivity ratio of IC50 for human recombinant MAO-B to IC50 for human recombinant MAO-A
[6] = Selectivity ratio of IC50 for equine serum BuChE to IC50 for electric eel AChE

Cholinesterase, sequence (P81908 whole entry): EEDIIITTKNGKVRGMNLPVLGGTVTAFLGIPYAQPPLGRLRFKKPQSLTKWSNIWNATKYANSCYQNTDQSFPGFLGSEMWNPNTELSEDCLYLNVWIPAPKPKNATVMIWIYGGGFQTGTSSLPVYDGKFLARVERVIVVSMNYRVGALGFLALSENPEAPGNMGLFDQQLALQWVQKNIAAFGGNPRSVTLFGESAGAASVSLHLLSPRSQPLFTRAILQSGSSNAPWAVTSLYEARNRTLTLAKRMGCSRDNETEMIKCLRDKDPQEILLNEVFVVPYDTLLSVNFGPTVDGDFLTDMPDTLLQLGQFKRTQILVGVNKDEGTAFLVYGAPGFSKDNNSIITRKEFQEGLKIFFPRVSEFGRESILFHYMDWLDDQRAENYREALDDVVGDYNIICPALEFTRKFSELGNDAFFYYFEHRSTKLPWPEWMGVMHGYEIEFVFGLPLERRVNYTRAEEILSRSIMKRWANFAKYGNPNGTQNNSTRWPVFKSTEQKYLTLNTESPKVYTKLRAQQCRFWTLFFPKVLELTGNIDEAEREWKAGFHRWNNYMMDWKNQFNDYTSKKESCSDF
Acetylcholinesterase, sequence (O42275 whole entry): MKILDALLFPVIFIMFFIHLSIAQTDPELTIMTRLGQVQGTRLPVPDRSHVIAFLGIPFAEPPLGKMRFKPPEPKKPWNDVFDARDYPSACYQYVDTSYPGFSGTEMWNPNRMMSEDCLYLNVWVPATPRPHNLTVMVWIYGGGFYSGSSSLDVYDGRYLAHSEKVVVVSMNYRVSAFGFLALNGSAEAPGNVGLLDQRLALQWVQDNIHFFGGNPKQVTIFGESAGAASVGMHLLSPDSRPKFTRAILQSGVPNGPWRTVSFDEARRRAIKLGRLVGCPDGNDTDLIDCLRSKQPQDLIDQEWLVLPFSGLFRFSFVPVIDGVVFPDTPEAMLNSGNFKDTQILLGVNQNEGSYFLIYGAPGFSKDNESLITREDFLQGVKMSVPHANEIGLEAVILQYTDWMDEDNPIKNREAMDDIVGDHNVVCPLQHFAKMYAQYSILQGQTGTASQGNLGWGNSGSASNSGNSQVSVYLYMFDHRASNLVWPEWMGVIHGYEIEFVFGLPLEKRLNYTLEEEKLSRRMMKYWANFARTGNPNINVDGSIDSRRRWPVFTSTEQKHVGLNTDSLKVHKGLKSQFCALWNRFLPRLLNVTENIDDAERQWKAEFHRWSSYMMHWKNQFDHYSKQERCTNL

C#CCNCc1cc2cc(OCCCC3CCN(Cc4ccccc4)CC3)ccc2n1C
IC50 [1]: 0.19 µM | IC50 ([2]; read-out: IC50): 0.0055 µM | IC50 [3]: 0.83 µM | IC50 [4]: 0.15 µM | Ratio IC50 [5]: 27.3 | Ratio IC50 [6]: 4.4

Cn1c(CNc2ccccc2)cc2cc(OCCCC3CCN(Cc4ccccc4)CC3)ccc21
IC50 [1]: 0.084 µM | IC50 ([2]; read-out: IC50): > 100 µM | IC50 ([2]; read-out: pIC50 (converted)): 100 µM | IC50 [3]: 0.85 µM | IC50 [4]: > 100 µM | Ratio IC50 [5]: > 1 | Ratio IC50 [6]: 10

Cn1c(C(=O)Nc2ccccc2)cc2cc(OCCCC3CCN(Cc4ccccc4)CC3)ccc21
IC50 [1]: > 100 µM | IC50 ([2]; read-out: IC50): > 100 µM | IC50 [3]: > 100 µM | IC50 [4]: > 100 µM | Ratio IC50 [5]: > 1 | Ratio IC50 [6]: > 1

C#CCNC(=O)c1cc2cc(OCCCC3CCN(Cc4ccccc4)CC3)ccc2n1C
IC50 [1]: 0.13 µM | IC50 ([2]; read-out: IC50): > 100 µM | IC50 [3]: > 100 µM | IC50 [4]: > 100 µM | Ratio IC50 [5]: > 1 | Ratio IC50 [6]: > 770

Cn1c(C(=O)O)cc2cc(OCCCC3CCN(Cc4ccccc4)CC3)ccc21
IC50 [1]: 0.4 µM | IC50 ([2]; read-out: IC50): > 100 µM | IC50 [3]: > 100 µM | IC50 [4]: > 100 µM | Ratio IC50 [5]: > 1 | Ratio IC50 [6]: > 250

Cn1c(CO)cc2cc(OCCCC3CCN(Cc4ccccc4)CC3)ccc21
IC50 [1]: 0.24 µM | IC50 ([2]; read-out: IC50): 4.26 µM | IC50 [3]: > 100 µM | IC50 [4]: > 100 µM | Ratio IC50 [5]: > 23 | Ratio IC50 [6]: > 416

C=CCNCc1cc2cc(OCCCC3CCN(Cc4ccccc4)CC3)ccc2n1C
IC50 [1]: 0.14 µM | IC50 ([2]; read-out: IC50): 0.98 µM | IC50 [3]: 0.46 µM | IC50 [4]: 15.3 µM | Ratio IC50 [5]: 15.6 | Ratio IC50 [6]: 3.3

Cn1c(C(=O)N2CCOCC2)cc2cc(OCCCC3CCN(Cc4ccccc4)CC3)ccc21
IC50 [1]: 0.27 µM | IC50 ([2]; read-out: IC50): > 100 µM | IC50 [3]: > 100 µM | IC50 [4]: > 100 µM | Ratio IC50 [5]: > 1 | Ratio IC50 [6]: > 370

COc1ccc2c(c1)cc(C(=O)NCc1ccccc1)n2C
IC50 [1]: > 100 µM | IC50 ([2]; read-out: IC50): > 100 µM | IC50 [3]: > 100 µM | IC50 [4]: > 100 µM | Ratio IC50 [5]: > 1 | Ratio IC50 [6]: > 1

CCOC(=O)c1cc2cc(OCCCC3CCN(Cc4ccccc4)CC3)ccc2n1C
IC50 [1]: 0.27 µM | IC50 ([2]; read-out: IC50): 1.53 µM | IC50 [3]: > 100 µM | IC50 [4]: > 100 µM | Ratio IC50 [5]: > 65 | Ratio IC50 [6]: > 370

Cn1c(CNCc2ccccc2)cc2cc(OCCCC3CCN(Cc4ccccc4)CC3)ccc21
IC50 [1]: 0.14 µM | IC50 ([2]; read-out: IC50): > 100 µM | IC50 ([2]; read-out: pIC50 (converted)): 100 µM | IC50 [3]: 0.29 µM | IC50 [4]: > 100 µM | Ratio IC50 [5]: > 1 | Ratio IC50 [6]: 2

Cn1c(C(=O)NCc2ccccc2)cc2cc(OCCCC3CCN(Cc4ccccc4)CC3)ccc21
IC50 [1]: > 100 µM | IC50 ([2]; read-out: IC50): > 100 µM | IC50 [3]: > 100 µM | IC50 [4]: > 100 µM | Ratio IC50 [5]: > 1 | Ratio IC50 [6]: > 1

COc1ccc2c(c1)cc(CNCc1ccccc1)n2C
IC50 [1]: 15.2 µM | IC50 ([2]; read-out: IC50): > 100 µM | IC50 ([2]; read-out: pIC50 (converted)): 100 µM | IC50 [3]: 22.9 µM | IC50 [4]: > 100 µM | Ratio IC50 [5]: > 1 | Ratio IC50 [6]: 1.5

C#CCN(C)Cc1cc2cc(OCCCC3CCN(Cc4ccccc4)CC3)ccc2n1C
IC50 ([2]; read-out: IC50): 0.0042 µM

Cn1c(CN2CCOCC2)cc2cc(OCCCC3CCN(Cc4ccccc4)CC3)ccc21
IC50 [1]: 0.1 µM | IC50 ([2]; read-out: IC50): 4.4 µM | IC50 [3]: 0.79 µM | IC50 [4]: > 100 µM | Ratio IC50 [5]: > 22.7 | Ratio IC50 [6]: 7.9

From ChEMBL document CHEMBL3124868, “Design, synthesis, pharmacological evaluation, QSAR analysis, molecular modeling and ADMET of novel donepezil-indolyl hybrids as multipotent cholinesterase/monoamine oxidase inhibitors for the potential treatment of Alzheimer's disease” (Eur J Med Chem, 2014)
